We go through 9 compounds from patent USRE47689E1, “Compounds for treating spinal muscular atrophy” (PTC Therapeutics, Inc., priority 2011, dated 2019).

Structures are written as SMILES.

The test system of data set [1] is SMN2 minigene (full length SMN2 minigene mRNA containing SMN2 exon 7). The experiment in a line: SMN2 minigene mRNA splicing RT-qPCR assay in cultured cells. The data set is classed as cell-based, human. As to conditions: Homo sapiens, HEK293-H; HEK293H cells stably transfected with SMN2-A minigene; 24 hours; 7-point concentration curve; 1.5-fold relative to vehicle-treated cells; read-out: EC1.5x for production of full length SMN2 mRNA. A digest of the protocol:
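Lysates → one-step RT-qPCR, minigene-specific primers (0.4 μM final) + GAPDH multiplex, 40 cycles. FL/GAPDH vs DMSO; EC1.5x, star-binned.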
For orientation: In qPCR the cycle at which signal appears reflects the starting amount.

Data set [2] concerns Smn protein. The experiment in a line: Smn protein assay in cultured cells (SMN HTRF). The data set is classed as cell-based, human. As to conditions: 48 hours; for EC1.5x (concentration giving 1.5-fold Smn protein increase): SMA Type 1 patient fibroblast cells (GM03813), 7-point concentration curve, SMN HTRF, concentration producing 1.5 times Smn protein vs DMSO vehicle control, read-out: EC1.5x for Smn protein expression; for maximum fold (Fold) increase of Smn protein: SMA patient fibroblast cells, 7-point concentration data, fold increase relative to vehicle control (SMN HTRF). In outline:
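Smn in SMA fibroblast lysates, measured by anti-SMN HTRF after 48 h compound exposure; EC1.5x from fold change over vehicle.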
On the technique in general: In TR-FRET formats the signal depends on donor and acceptor labels being close together.

Broadly, the melting point is the temperature of the solid-liquid transition. Compound `Cc1cn2cc(-c3cc4ccc(N5CC[C@@H](CN(C)C)C5)cc4oc3=O)nc2c(C)n1` [Compound 967, 7-{(3S)-3-[(dimethylamino)methyl]pyrrolidin-1-yl}-3-(6,8-dimethylimidazo[1,2-a]pyrazin-2-yl)-2H-chromen-2-one] came in with a melting point of 198 to 200 °C. The EC (1.5-fold) in data set [1] is below 0.1 µM. Besides, in data set [2], the EC1.5x (concentration giving 1.5-fold Smn protein increase) is below 300 nM; the “maximum fold (Fold) increase of Smn protein” value (“maximum fold (Fold) increase” below) was “**** (fold increase between >1.5 and ≤1.65)”.
In the case of `COc1cc(OC)cc(-c2cc3ccc(N4CCCN(C)CC4)cc3oc2=O)c1` [Compound 411, 3-(3,5-dimethoxyphenyl)-7-(4-methyl-1,4-diazepan-1-yl)-2H-chromen-2-one], the melting point was in the range of 151 to 153 °C. Further, the EC (1.5-fold) in data set [1] was in the range of 3 to 30 µM. In data set [2], the “maximum fold (Fold) increase” value is “* (maximum fold increase of ≤1.2)”.
The compound `CN1CCCN(c2ccc3cc(-c4cn5cccc(F)c5n4)c(=O)oc3c2)CC1` [Compound 295, 3-(8-fluoroimidazo[1,2-a]pyridin-2-yl)-7-(4-methyl-1,4-diazepan-1-yl)-2H-chromen-2-one] displayed a melting point of 174 to 176 °C. Also, in data set [1], the EC (1.5-fold) was below 0.1 µM. Besides, in data set [2], the EC1.5x (concentration giving 1.5-fold Smn protein increase) was 300 to 1000 nM; the “maximum fold (Fold) increase” value was “**** (fold increase between >1.5 and ≤1.65)”.
`Cc1cc(F)c2nc(-c3cc4ccc(N[C@@H]5CCNC5)cc4oc3=O)cn2c1` [Compound 583, 3-(8-fluoro-6-methylimidazo[1,2-a]pyridin-2-yl)-7-[(3R)-pyrrolidin-3-ylamino]-2H-chromen-2-one] came in with a melting point of 231 to 238 °C. The EC (1.5-fold) in data set [1] lay in the range of 0.3 to 1 µM. Besides, the “maximum fold (Fold) increase” value in data set [2] is “** (fold increase between >1.2 and ≤1.35)”.
Consider `Cc1cn2cc(-c3cc4c(F)cc(N5CCN(C)CC5)cc4oc3=O)nc2cn1` [Compound 592, 5-fluoro-3-(6-methylimidazo[1,2-a]pyrazin-2-yl)-7-(4-methylpiperazin-1-yl)-2H-chromen-2-one], for which the melting point fell in the range of 283 to 284 °C. The EC (1.5-fold) in data set [1] is below 0.1 µM. For the same compound, in data set [2], the EC1.5x (concentration giving 1.5-fold Smn protein increase) was below 300 nM and the “maximum fold (Fold) increase” value is on record as “***** (fold increase >1.65)”.
The compound `CN1CCN(c2cc(F)c3cc(-c4cn5ccsc5n4)c(=O)oc3c2)CC1` [Compound 372, 5-fluoro-3-(imidazo[2,1-b][1,3]thiazol-6-yl)-7-(4-methylpiperazin-1-yl)-2H-chromen-2-one] registered a melting point of 268 to 271 °C. Further, the EC (1.5-fold) in data set [1] was in the range of 0.1 to 0.3 µM. Besides, the “maximum fold (Fold) increase” value in data set [2] is “** (fold increase between >1.2 and ≤1.35)”.
The compound `CN1CCN(c2cc(F)c3cc(-c4nc5c(F)cccc5o4)c(=O)oc3c2)CC1` [Compound 366, 5-fluoro-3-(4-fluoro-1,3-benzoxazol-2-yl)-7-(4-methylpiperazin-1-yl)-2H-chromen-2-one] had a melting point of 256 to 260 °C. Moreover, in data set [1], the EC (1.5-fold) is 0.3 to 1 µM. In data set [2], the “maximum fold (Fold) increase” value is “** (fold increase between >1.2 and ≤1.35)”.
Consider `COc1cccn2cc(-c3cc4ccc(N5CCNCC5)cc4oc3=O)nc12` [Compound 402, 3-(8-methoxyimidazo[1,2-a]pyridin-2-yl)-7-(piperazin-1-yl)-2H-chromen-2-one], for which the melting point was in the range of 236 to 240 °C. Moreover, the EC (1.5-fold) in data set [1] fell in the range of 3 to 30 µM. For the same compound, in data set [2], the “maximum fold (Fold) increase” value is on record as “* (maximum fold increase of ≤1.2)”.
With `Cc1cc(F)c2nc(-c3cc4ccc(N5C[C@@H](C)N[C@@H](C)C5)cc4oc3=O)cn2c1` [Compound 354, 7-[(3R,5S)-3,5-dimethylpiperazin-1-yl]-3-(8-fluoro-6-methylimidazo[1,2-a]pyridin-2-yl)-2H-chromen-2-one], the melting point is 268 to 275 °C. For the same compound, the EC (1.5-fold) in data set [1] was below 0.1 µM. Moreover, in data set [2], the EC1.5x (concentration giving 1.5-fold Smn protein increase) was 1000 to 3000 nM; the “maximum fold (Fold) increase” value is “*** (fold increase between >1.35 and ≤1.5)”.
